Where two headings read alike, the source gives them in different places.
Legend:
EBOV-GFP [1] = experiment: microbe, parasite or virus in culture; assay type: cell-based, Ebola virus; details: for IC50: read-out: IC50 against EBOV-GFP
EBOV-GFP [2] = assay type: cell-based, Ebola virus
EBOV polymerase complex = assay type: cell-based, Ebola virus
ZIKV = experiment: microbe, parasite or virus in culture; assay type: cell-based, Zika virus; details: read-out: IC50 against ZIKV
ISG54, ISG56, and MX1 = assay type: cell-based, human
ISRE promoter [3] = assay type: cell-based, human
VSV-GFP = experiment: microbe, parasite or virus in culture; assay type: cell-based, vesicular stomatitis virus; details: read-out: IC50 against VSV-GFP
ISRE promoter [4] = assay type: cell-based, mouse

`O=C(N[C@@H]1CCCc2c1[nH]c1ccc(Cl)cc21)c1ccccn1` [GSK983, reference compound] was tested. Which “Activity against EBOV-GFP” value (EBOV-GFP [1]) did it give?
Its value is “highly active, even at the lowest concentration tested”.

And the “Effect on cell viability” value (A549 cells)?
The value was “no effect on cell viability”.

What about the “Reduction of viral titers in cell culture supernatants” value (EBOV-GFP [2]) of the same compound?
Its value is greater than 200 fold.

Which IC50 (EBOV-GFP [1]) does the source give for `O=C(NC1CCCc2c1[nH]c1ccc(Cl)cc21)c1ccccn1` (stereo not drawn) [SW308] here?
The IC50 was 1700 nM.

And the “Activity in EBOV MG assay” value (EBOV polymerase complex)?
The value was “less active”.

What about the “Inhibition of EBOV replication” value (EBOV-GFP [2]) of the same compound?
The value was “unable to inhibit EBOV virus replication efficiently”.

How did the IC50 (EBOV-GFP [1]) turn out when `O=C(NC1CCCc2c1[nH]c1ccc(Cl)cc21)c1ccccn1` (stereo not drawn) [SW835] was run?
The IC50 was roughly 20 nM.

And the IC50 (ZIKV)?
The IC50 was 40 nM.

And the “Effect on cell viability” value (Vero cells)?
Its value is “no significant effect on cell viability”.

What about the “ISG54 and ISG56 mRNA response” value (ISG54, ISG56, and MX1) of the same compound?
Its value is “responded”.

And the “Activity in EBOV MG assay” value (EBOV polymerase complex)?
Its value is “potent activity”.

What about the “Activation of ISRE promoter” value (ISRE promoter [3]) of the same compound?
Its value is “activated the ISRE promoter”.

What about the IC50 (VSV-GFP) of the same compound?
The IC50 was 400 nM.

What about the “Effect on cell viability” value (A549 cells) of the same compound?
The value was “no effect on cell viability”.

And the “Reduction of viral titers in cell culture supernatants” value (EBOV-GFP [2])?
The value was greater than 200 fold.

And the “ISRE reporter induction in MEFs” value (ISRE promoter [4])?
The value was “not affected in IFNAR knockout cells”.

Which IC50 (EBOV-GFP [1]; Zaire ebolavirus, HeLa, 24 h) does the source give for `Cc1c(-c2ccc(-c3ccccc3F)cc2)nc2ccc(F)cc2c1C(=O)O` [brequinar, reference compound] here?
Its IC50 is 100 nM.

What about the IC50 (ZIKV; Zika virus, Vero, 48 h) of the same compound?
Its IC50 is 300 nM.

What about the “ISG54 and ISG56 mRNA response” value (ISG54, ISG56, and MX1) of the same compound?
Its value is “responded”.

And the IC50 (EBOV polymerase complex; read-out: IC50 in EBOV MG assay)?
The IC50 was 100 nM.

And the “Activation of ISRE promoter” value (ISRE promoter [3])?
Its value is “activated the ISRE promoter”.

And the IC50 (VSV-GFP; Vesicular stomatitis virus, Vero, 21 h)?
The IC50 was 500 nM.

And the “Inhibition of EBOV replication” value (EBOV-GFP [2])?
Its value is “potently inhibited virus growth”.

What about the “ISRE reporter induction in MEFs” value (ISRE promoter [4]) of the same compound?
The value was “not statistically significant compared to DMSO-treated cells”.
